Experimental data published in patent publication US20260083864A1, “CONTRAST AGENTS FOR USE IN DIAGNOSTIC COMPUTED TOMOGRAPHY IMAGING” (Bayer Aktiengesellschaft, priority 2022, published 2026).

Experiments:
plasma proteins = assay: Plasma protein binding, equilibrium dialysis, monkey; format: in vitro ADME
Description: The binding of Example 1 and 15 to plasma proteins of different species (human, dog, monkey, rabbit, mouse and rat) was investigated in vitro by using equilibrium dialysis in reusable 96-well Micro-Equilibrium Dialysis Devices (ht dialysis) (Banker M J et al. J Pharm Sci. 2003 May; 92 (5): 967-74).

[1] = Relaxivity measurements at 1.41 T in human plasma; format: physicochemical; details: 37° C., normalized to Gd
How it was run: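 T1 determined by inversion recovery (8 inversion-time steps) and T2 by CPMG sequence, both with relaxation delay ≥5×T1. Each relaxivity used three Gd concentrations between 0.05 and 2 mM. Relaxivities were derived from relaxation rates measured in water and plasma.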

OATP1B1 = target: T1, OATP1B1 (Homo sapiens, UniProt Q9Y6L6); assay: Uptake into stable transfected OATP1B1 HEK 293 cells; format: cell-based; details: for Inhibition Rifampicine: uptake into OATP1B1-HEK 293 cells; for Uptake into OATP1B1-HEK 293 cells: 40 min incubation, relative to RC1 (Gd-EOB-DTPA)
T1 sequence (Q9Y6L6 1-691): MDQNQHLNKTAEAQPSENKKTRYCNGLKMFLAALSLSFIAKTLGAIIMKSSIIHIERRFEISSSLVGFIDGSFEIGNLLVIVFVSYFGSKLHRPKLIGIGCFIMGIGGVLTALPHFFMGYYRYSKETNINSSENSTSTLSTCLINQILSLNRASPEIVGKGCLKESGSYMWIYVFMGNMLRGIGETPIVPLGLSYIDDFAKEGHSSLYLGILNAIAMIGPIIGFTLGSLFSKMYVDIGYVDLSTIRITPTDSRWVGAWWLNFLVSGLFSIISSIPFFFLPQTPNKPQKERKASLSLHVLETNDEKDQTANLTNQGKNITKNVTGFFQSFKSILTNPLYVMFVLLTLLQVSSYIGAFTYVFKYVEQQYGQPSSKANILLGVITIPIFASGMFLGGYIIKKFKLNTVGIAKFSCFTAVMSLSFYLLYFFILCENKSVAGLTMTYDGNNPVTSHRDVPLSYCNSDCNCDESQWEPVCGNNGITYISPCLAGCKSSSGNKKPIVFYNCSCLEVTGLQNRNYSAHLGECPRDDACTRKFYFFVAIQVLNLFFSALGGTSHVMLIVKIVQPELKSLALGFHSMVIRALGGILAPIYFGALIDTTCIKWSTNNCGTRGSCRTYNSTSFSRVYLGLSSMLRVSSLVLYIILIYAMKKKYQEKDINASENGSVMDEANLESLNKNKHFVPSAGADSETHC
How it was run: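 Uptake measured in triplicate after a 40 min, unshaken exposure of OATP1B1-expressing HEK293 cells to 100 µM (final) compound in transport buffer. Cold PBS wash stopped uptake; Gd-EOB-DTPA served as reference standard within each plate.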

[2] = tested on: freshly isolated rat hepatocytes; assay: Uptake into freshly isolated rat hepatocytes; details: for Uptake rat hepatocytes: 100 μmol Gd/L, 10 min, 37° C., relative to RC1 (Gd-EOB-DTPA); for Inhibition Rifampicine: rat hepatocyte uptake, test item and Rifampicine 1:1, each 100 μM
[3] = tested on: cryopreserved rat hepatocytes; assay: In vitro metabolism in cryopreserved rat hepatocytes; format: in vitro ADME; details: 5 μM, incubation time of 4 h, LC-MS
Protocol: The in vitro metabolism was investigated in cryopreserved human and rat hepatocytes (Li A P et al. Biomark Med. 2014; 8 (2): 173-83). Cryopreserved human (WSS) and rat hepatocytes (Wistar rat, RWH137, male) were incubated with the test compound (incubation concentration: 5 μM). The amount of remaining compound was related to the initial amount (0 mins). The cells were removed from the liquid nitrogen. The vial was immersed in the 37° C. water bath and shaken gently (by hand) until most of the ice was melted (approx. 90 sec.). The cell suspensions were transferred e.g. into a 50 ml-centrifuge tube and 12 ml of 4° C.-cold buffer (e.g. Krebs-Henseleit or Williams Medium E) were added. The cell suspension was centrifuged at 50×g for 5 mins. The buffer was aspirated, and the cells resuspended in 5 ml of fresh warm buffer. An aliquot of 50 μl was mixed with 200 μl trypan blue to determine the cell density and cell viability. The cell suspension was adjusted to a final concentration of 0.8 Mio hepatocytes per mL. The incubations were performed in 96 well plates (1.2 ml volume, negative control without cells). The 0 min samples were stopped immediately by adding 250 μl of ice-cold methanol. All other samples are shaken on an Heidolph®-rotor during incubation in a 37° C. incubator for the indicated period of 4 hours. Aliquots of the samples were used for analysis. All samples were analyzed using LC-MS at 0 h, 1 h, 2 h and 4 h (exemplary LC-MS: Accucore C-18 column, 30° C., 0.35 mL/min flow rate, solvent A: 10 mM Ammonium formate+5% MeCN, pH4 and solvent B: MeCN+0.1% formic acid; […] injection volume, gradient: 90% A, 10% B, 5 min 70% A and 30% B, 8 min 0% A and 100% B).

Question: For `CCOCCOCCOc1ccc(CCC[C@@H](C(=O)O)N2CCN([C@@H](CO)C(=O)[O-])CCN([C@@H](CO)C(=O)[O-])CCN([C@@H](CO)C(=O)[O-])CC2)cc1.[Gd+3]` [Example 15, gadolinium (2S,2′S,2″S)-2,2′,2″-{10-[(1S)-1-carboxy-4-{4-[2-(2-ethoxyethoxy)ethoxy]phenyl}butyl]-1,4,7,10-tetraazacyclododecane-1,4,7-triyl}tris(3-hydroxypropanoate)], which Fraction unbound fu (plasma proteins) is on record?
Answer: 88%

Question: And the r1 human plasma [1]?
Answer: 8.7 L/mmol/s

Question: And the “Inhibition Rifampicine” value (OATP1B1)?
Answer: 91 % inhibition

Question: What about the Uptake rat hepatocytes [2] of the same compound?
Answer: 109 % of RC1

Question: And the “Inhibition Rifampicine” value [2]?
Answer: 94 % inhibition

Question: And the Metabolites detected [3]?
Answer: No metabolites were detected

Question: Which Fraction unbound fu (plasma proteins) does the source give for `CCOc1ccc(CCOCC(C(=O)O)N2CCN(CC(=O)[O-])CCN(CC(=O)[O-])CCN(CC(=O)[O-])CC2)cc1.[Gd+3]` (stereo not drawn) [Example 1, gadolinium 2,2′,2″-(10-{1-carboxy-2-[2-(4-ethoxyphenyl)ethoxy]ethyl}-1,4,7,10-tetraazacyclododecane-1,4,7-triyl)triacetate] here?
Answer: 94%

Question: And the r1 human plasma [1]?
Answer: 6.5 L/mmol/s

Question: And the “Uptake into OATP1B1-HEK 293 cells” value (OATP1B1)?
Answer: 187 % of RC1

Question: What about the “Inhibition Rifampicine” value (OATP1B1) of the same compound?
Answer: 92 % inhibition

Question: What about the Uptake rat hepatocytes [2] of the same compound?
Answer: 29 % of RC1

Question: What about the “Inhibition Rifampicine” value [2] of the same compound?
Answer: 93 % inhibition

Question: And the Metabolites detected [3]?
Answer: No metabolites were detected

Question: With `CCOCCOCCOc1ccc(CC(C(=O)O)N2CCN(CC(=O)[O-])CCN(CC(=O)[O-])CCN(CC(=O)[O-])CC2)cc1.[Gd+3]` (stereo not drawn) [Example 2, gadolinium 2,2′,2″-{10-[1-carboxy-2-{4-[2-(2-ethoxyethoxy)ethoxy]phenyl}ethyl]-1,4,7,10-tetraazacyclododecane-1,4,7-triyl}triacetate] as the compound, how does the Fraction unbound fu (plasma proteins) read?
Answer: >95%

Question: And the r1 human plasma [1]?
Answer: 6.2 L/mmol/s

Question: And the “Uptake into OATP1B1-HEK 293 cells” value (OATP1B1)?
Answer: 324 % of RC1

Question: And the “Inhibition Rifampicine” value (OATP1B1)?
Answer: 45 % inhibition

Question: And the Uptake rat hepatocytes [2]?
Answer: 52 % of RC1

Question: And the “Inhibition Rifampicine” value [2]?
Answer: 85 % inhibition

Question: What about the Metabolites detected [3] of the same compound?
Answer: No metabolites were detected

Question: Which “Uptake into OATP1B1-HEK 293 cells” value (OATP1B1) does the source give for `CCOc1ccc(CC(CN(CCN(CC(=O)[O-])CC(=O)[O-])CC(=O)[O-])N(CC(=O)[O-])CC(=O)[O-])cc1.[Gd+3].[Na+].[Na+]` (stereo not drawn) [RC1, gadoxetate disodium, reference compound] here?
Answer: 100 % of RC1

Question: And the “Inhibition Rifampicine” value (OATP1B1)?
Answer: 81 % inhibition

Question: And the Uptake rat hepatocytes [2]?
Answer: 100 % of RC1

Question: What about the “Inhibition Rifampicine” value [2] of the same compound?
Answer: 97 % inhibition
